Five compounds from patent US8476255B2, “Histone deacetylase inhibitors” (Orchid Chemicals & Pharmaceuticals Limited, priority 2007, dated 2013) can be followed below.

SMILES strings stand for the structures.

The test system of assay [1] is NCIH460 (lung) cells. In words: Anti-cancer screen (MTT), NCIH460. The format is cell-based. Conditions: Homo sapiens, NCI-H460, NCIH460, 48 hours, MTT; for GI50: read-out: Cell growth inhibition NCIH460 (Lung) GI50; for LC50: read-out: Cell growth inhibition NCIH460 (Lung) LC50; for IC (TGI): read-out: Cell growth inhibition NCIH460 (Lung) TGI. Summed up:
(§1)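 Cells in DMEM with 10% FBS were seeded for 24 h, then exposed for 48 h to compounds at 0.01, 0.1, 1, 10 and 100 μM final, in triplicate. Viability was read by MTT (3 h, A570 after DMSO solubilisation), referenced to a pre-dosing T0 plate, with SAHA as standard.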

The subject of assay [2] is HCT 116 (colon) cells. The assay is described as follows: Anti-cancer screen (MTT), HCT 116. It is filed as cell-based. Conditions: Homo sapiens, HCT-116, HCT116, 48 hours, MTT; for GI50: read-out: Cell growth inhibition HCT116 (Colon) GI50; for CC50: read-out: Cell growth inhibition HCT116 (Colon) LC50; for IC (TGI): read-out: Cell growth inhibition HCT116 (Colon) TGI. Summed up:
as §1

For assay [3], the system named is NCIH460, HCT116 and U251 cells. In words: Anti-cancer screen, mean GI50 over cell lines. The format is cell-based. Conditions: mean over cell lines; read-out: Cell growth inhibition Mean GI50. Summed up: as §1
Assay [4] deals with HDAC (Mouse Liver Extract). In words: HDAC inhibition assay using Boc-Lys(Ac)-AMC substrate. Conditions: mouse liver enzyme. The format is biochemical. Summed up: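 Released AMC measured at 360 nm excitation, 460 nm emission after 15-30 min trypsin development at 37° C. Preceding deacetylation: mouse liver extract with acetylated-lysine AMC substrate, 30 min at 37° C after 5-min preincubation; blanks were buffer alone and substrate alone.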

Assay [5] has as its system U251 (glioma) cells. In words: Anti-cancer screen (MTT), U251. Conditions: Homo sapiens, U-251, U251, 48 hours, MTT; for GI50: read-out: Cell growth inhibition U251 (Glioma) GI50; for LC50 (concentration giving 50% net cell kill relative to the time-zero cell count): read-out: Cell growth inhibition U251 (Glioma) LC50; for IC (TGI): read-out: Cell growth inhibition U251 (Glioma) TGI. It is filed as cell-based. Summed up:
as §1

For `COc1ccc(/C=C(/C(=O)NCc2ccc(C(=O)NO)cc2)c2ccc(C)cc2)cc1OC` [Compound 62, 4-((2-(4-Methylphenyl)-3-(3,4-dimethoxyphenyl)acrylamido)methyl)-N-hydroxybenzamide], in assay [1], the GI50 – broadly, the concentration that inhibits growth by half – was greater than 100 µM; the LC50 (in general, the concentration lethal to half of the exposed cells or organisms) was greater than 100 µM; the IC (TGI) was greater than 100 µM. Also, in assay [2], the GI50 came out at 90 µM, the CC50 is greater than 100 µM and the IC (TGI) is greater than 100 µM. The concentration for 50% growth inhibition (GI50) in assay [3] came out at 90 µM. Also, in assay [4], the “HDAC inhibition % (1 μM)” value turned out to be 83.2% and the “HDAC inhibition % (10 μM)” value is given as 100.0%. In assay [5], the GI50 was greater than 100 µM, the LC50 (concentration giving 50% net cell kill relative to the time-zero cell count) was greater than 100 µM and the IC (TGI) was greater than 100 µM.

For the compound `O=C(CCCCCNC(=O)NC(=O)/C(=C/c1ccc(F)c(F)c1)c1ccc(F)cc1)NO` [Compound 100], in assay [1], the GI50 was 40 µM, the LC50 is 96 µM and the IC (TGI) was determined as 70 µM. In assay [2], the GI50 was determined as 8.8 µM, the CC50 was found to be 82 µM and the IC (TGI) worked out at 46 µM. In addition, in assay [3], the GI50 is 25.6 µM. Moreover, in assay [4], the “HDAC inhibition % (1 μM)” value amounted to 77.1% and the “HDAC inhibition % (10 μM)” value is reported as 96.3%. In assay [5], the GI50 is 28 µM, the LC50 (concentration giving 50% net cell kill relative to the time-zero cell count) was determined as 84 µM and the IC (TGI) came out at 62 µM.

For the compound `CSc1ccc(/C=C(/C(=O)NCc2ccc(C(=O)Nc3ccccc3N)cc2)c2ccsc2)cc1` [Compound 26, N-(2-Aminophenyl)-4-((3-(4-methylthiophenyl)-2-(thiophen-3-yl)acrylamido)methyl)benzamide], in assay [1], the GI50 amounted to 52 µM, the LC50 was greater than 100 µM and the IC (TGI) is greater than 100 µM. Moreover, in assay [2], the GI50 came to 4 µM, the CC50 was greater than 100 µM and the IC (TGI) was 15 µM. In addition, the GI50 in assay [3] stood at 35.3 µM. Also, in assay [4], the “HDAC inhibition % (1 μM)” value worked out at 34.1% and the “HDAC inhibition % (10 μM)” value stood at 42.6%. In assay [5], the GI50 is 50 µM, the LC50 (concentration giving 50% net cell kill relative to the time-zero cell count) is greater than 100 µM and the IC (TGI) came out at 70 µM.

In the case of `CSc1ccc(/C=C(/C(=O)NCc2ccc(C(=O)Nc3ccccc3N)cc2)c2ccc(C(F)(F)F)cc2)cc1` [Compound 21, N-(2-Aminophenyl)-4-((3-(4-methylthiophenyl)-2-(4-trifluoromethylphenyl)acrylamido)methyl)benzamide], in assay [1], the concentration for 50% growth inhibition (GI50) was found to be 32 µM, the LC50 turned out to be 78 µM and the IC (TGI) was determined as 46 µM. In addition, in assay [2], the GI50 is 35 µM, the CC50 is 82 µM and the IC (TGI) is 56 µM. Also, the GI50 in assay [3] is 39.7 µM. In assay [4], the “HDAC inhibition % (1 μM)” value is 7.0% and the “HDAC inhibition % (10 μM)” value is given as 24.8%. In assay [5], the GI50 turned out to be 52 µM, the LC50 (concentration giving 50% net cell kill relative to the time-zero cell count) was found to be 96 µM and the IC (TGI) is 65 µM.

With `CSc1ccc(/C=C(/C(=O)NCc2ccc(C(=O)NO)cc2)c2ccccc2Cl)cc1` [Compound 56, 4-((2-(2-Chlorophenyl)-3-(4-methylthiophenyl)acrylamido)methyl)-N-hydroxybenzamide], in assay [1], the GI50 was greater than 100 µM, the LC50 is greater than 100 µM and the IC (TGI) is greater than 100 µM. Further, in assay [2], the GI50 is greater than 100 µM, the CC50 is greater than 100 µM and the IC (TGI) was greater than 100 µM. Besides, in assay [3], the GI50 is greater than 100 µM. Also, in assay [4], the “HDAC inhibition % (1 μM)” value was determined as 7.7% and the “HDAC inhibition % (10 μM)” value is 8.0%. In assay [5], the GI50 was 0.1 µM, the LC50 (concentration giving 50% net cell kill relative to the time-zero cell count) is greater than 100 µM and the IC (TGI) was determined as 0.1 µM.
